From patent US20230406831A1, “COMPOUNDS AND METHODS OF INHIBITING BACTERIAL CHAPERONIN SYSTEMS” (THE TRUSTEES OF INDIANA UNIVERSITY, priority 2020, published 2023) come the findings set out here.

pIC50: −log10 of the molar value. Read-outs that look alike come from different tables or passages of the source. Some results are limits rather than exact numbers.

The nature of data set [1]: HEK 293 kidney cell viability / cytotoxicity assay (Alamar Blue). The format is cell-based. The conditions noted are these: human, 48 h incubation, Alamar Blue, read-out: HEK 293 Kidney Cell Viability CC50. In general terms: Alamar Blue is a resazurin reagent that responds to reducing activity.
For data set [2], the target named is T1, HSP60/10 (Homo sapiens, UniProt P10809).
T1 construct: octa-Histidine (His8) tag, TEV-cleavable (N, cleaved yes); made in house; host or cells: HSP60 in Rosetta 2 (DE3) E. coli; HSP10 in Rosetta 2 (DE3) pLysS
T1 sequence (P10809 27-573): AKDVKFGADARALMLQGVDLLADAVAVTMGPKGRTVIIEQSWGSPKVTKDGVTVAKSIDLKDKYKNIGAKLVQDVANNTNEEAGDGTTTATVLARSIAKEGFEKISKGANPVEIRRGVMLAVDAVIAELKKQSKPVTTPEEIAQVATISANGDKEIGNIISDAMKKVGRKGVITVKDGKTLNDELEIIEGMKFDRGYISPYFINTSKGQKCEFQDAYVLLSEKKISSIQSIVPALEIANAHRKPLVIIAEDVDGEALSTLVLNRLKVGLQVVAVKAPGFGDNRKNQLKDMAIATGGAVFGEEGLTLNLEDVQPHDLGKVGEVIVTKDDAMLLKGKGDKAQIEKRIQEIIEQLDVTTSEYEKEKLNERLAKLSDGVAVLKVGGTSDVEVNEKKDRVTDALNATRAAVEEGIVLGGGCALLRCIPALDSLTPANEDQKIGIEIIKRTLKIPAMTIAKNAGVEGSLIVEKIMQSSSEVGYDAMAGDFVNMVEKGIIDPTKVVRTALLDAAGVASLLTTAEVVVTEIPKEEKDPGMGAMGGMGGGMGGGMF
Briefly: HSP60/10-mediated dMDH refolding assay. It is filed as biochemical. Summed up:
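Pre-formed chaperonin–denatured pig heart MDH complexes (50 nM GroEL or HSP60, 60 nM GroES or HSP10, 12 nM dMDH) refolded with 1 mM ATP and compound (100 μM–46 nM) at 37 °C, ~20-40 min for GroEL/ES or ~40-60 min for HSP60/10. After EDTA quench, MDH activity was read as NADH loss at A340. IC50 came from variable-slope regression.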

Setting [3] is: Table 3, 37° C., 1 mM ATP, read-out: Biochemical Assay IC50 HSP60/10-dMDH Refolding.
Where [4] appears, read: Table 1, 37° C., 1 mM ATP, read-out: Biochemical Assay IC50 HSP60/10-dMDH Refolding.

In the case of `COc1ccc(Cl)cc1C(=O)Nc1ccc(Oc2ccc(Cl)cc2)c(Cl)c1` [Compound 86, 5-chloro-N-(3-chloro-4-(4-chlorophenoxy)phenyl)-2-methoxybenzamide], in data set [1] (HEK 293 kidney cells, Table 3), the CC50 at 48 h was above 100 µM. The pIC50 in data set [2] (setting [3]) is below 4.00.

Turning to `O=C(Nc1ccc(Oc2ccc(Cl)cc2)c(Cl)c1)c1cc(Cl)ccc1O` [Compound 87, 5-chloro-N-(3-chloro-4-(4-chlorophenoxy)phenyl)-2-hydroxybenzamide], the CC50 at 48 h in data set [1] (Table 3) was found to be 10 µM. The pIC50 in data set [2] (setting [3]) is 5.02.

For the compound `COc1ccc(Cl)cc1C(=O)Nc1ccc(Oc2ccc(Cl)cc2)cc1` [Compound 88, 5-chloro-N-(4-(4-chlorophenoxy)phenyl)-2-methoxybenzamide], in data set [1] (HEK 293 kidney cells, Table 3), the CC50 at 48 h was above 100 µM. Moreover, the pIC50 in data set [2] (setting [3]) is below 4.00.

Turning to `O=C(Nc1ccc(Oc2ccc(Cl)cc2)cc1)c1cc(Cl)ccc1O` [Compound 89, 5-chloro-N-(4-(4-chlorophenoxy)phenyl)-2-hydroxybenzamide], the CC50 at 48 h in data set [1] (Table 3) came to 15 µM. Also, the pIC50 in data set [2] (setting [3]) is 4.35.

Regarding `COc1ccc(Cl)cc1C(=O)Nc1ccc(Oc2ccccc2)c(Cl)c1` [Compound 90, 5-chloro-N-(3-chloro-4-phenoxyphenyl)-2-methoxybenzamide], the CC50 at 48 h in data set [1] (HEK 293 kidney cells, Table 3) was above 100 µM. The pIC50 in data set [2] (setting [3]) is below 4.00.

Regarding `O=C(Nc1ccc(Oc2ccccc2)c(Cl)c1)c1cc(Cl)ccc1O` [Compound 91, 5-chloro-N-(3-chloro-4-phenoxyphenyl)-2-hydroxybenzamide], the CC50 at 48 h in data set [1] (Table 3) worked out at 4.7 µM. Besides, in data set [2] (setting [3]), the pIC50 is 4.66.

Take `COc1ccc(Cl)cc1C(=O)Nc1ccc(Oc2ccccc2)cc1` [Compound 92, 5-chloro-2-methoxy-N-(4-phenoxyphenyl)benzamide]: the CC50 at 48 h in data set [1] (HEK 293 kidney cells, Table 3) was above 100 µM. Besides, the pIC50 in data set [2] (setting [3]) was below 4.00.

In the case of `O=C(Nc1ccc(Oc2ccccc2)cc1)c1cc(Cl)ccc1O` [Compound 93, 5-chloro-2-hydroxy-N-(4-phenoxyphenyl)benzamide], the CC50 at 48 h in data set [1] (HEK 293 kidney cells, Table 3) worked out at 20 µM. In addition, the pIC50 in data set [2] (setting [3]) was below 4.00.

Consider `COc1ccc(Cl)cc1C(=O)Nc1ccc(Sc2nc3ccccc3s2)c(Cl)c1` [Compound 94, N-(4-(benzo[d]thiazol-2-ylthio)-3-chlorophenyl)-5-chloro-2-methoxybenzamide], for which the CC50 at 48 h in data set [1] (HEK 293 kidney cells, Table 3) is above 100 µM. For the same compound, in data set [2] (setting [3]), the pIC50 was below 4.00.

`O=C(Nc1ccc(Sc2nc3ccccc3s2)c(Cl)c1)c1cc(Cl)ccc1O` [Compound 95, N-(4-(benzo[d]thiazol-2-ylthio)-3-chlorophenyl)-5-chloro-2-hydroxybenzamide]: the CC50 at 48 h in data set [1] (HEK 293 kidney cells, Table 3) is 83 µM. The pIC50 in data set [2] (setting [3]) is 4.41.

`COc1ccc(Cl)cc1C(=O)Nc1ccc(Sc2nc3ccccc3s2)cc1` [Compound 96, N-(4-(benzo[d]thiazol-2-ylthio)phenyl)-5-chloro-2-methoxybenzamide]: in data set [1] (HEK 293 kidney cells, Table 3), the cytotoxic concentration (CC50) at 48 h came to 56 µM. Further, in data set [2] (setting [3]), the pIC50 is below 4.00.

Turning to `O=C(Nc1ccc(Sc2nc3ccccc3s2)cc1)c1cc(Cl)ccc1O` [Compound 97, N-(4-(benzo[d]thiazol-2-ylthio)phenyl)-5-chloro-2-hydroxybenzamide], the half-maximal cytotoxic concentration (CC50) at 48 h in data set [1] (HEK 293 kidney cells, Table 3) is 28 µM. Moreover, the pIC50 in data set [2] (setting [3]) was 4.23.

Turning to `COc1ccc(Cl)cc1C(=O)Nc1ccc(Cc2ccccc2)cc1` [Compound 98, N-(4-benzylphenyl)-5-chloro-2-methoxybenzamide], the cytotoxic concentration (CC50) at 48 h in data set [1] (HEK 293 kidney cells, Table 3) is above 100 µM. Further, the pIC50 in data set [2] (setting [3]) was below 4.00.

`O=C(Nc1ccc(Cc2ccccc2)cc1)c1cc(Cl)ccc1O` [Compound 99, N-(4-benzylphenyl)-5-chloro-2-hydroxybenzamide]: the CC50 at 48 h in data set [1] (Table 3) is 19 µM. In data set [2] (setting [3]), the pIC50 was below 4.00.

Take `COc1ccc(Cl)cc1C(=O)Nc1ccc(CCc2ccccc2)cc1` [Compound 100, 5-chloro-2-methoxy-N-(4-phenethylphenyl)benzamide]: in data set [1] (HEK 293 kidney cells, Table 3), the CC50 at 48 h is above 100 µM. Moreover, the pIC50 in data set [2] (setting [3]) is below 4.00.

For `O=C(Nc1ccc(CCc2ccccc2)cc1)c1cc(Cl)ccc1O` [Compound 101], the CC50 at 48 h in data set [1] (HEK 293 kidney cells, Table 3) came out at 4.3 µM. Moreover, in data set [2] (setting [3]), the pIC50 is 4.09.

Regarding `COc1ccc(Cl)cc1C(=O)Nc1ccc(OCc2ccccc2)cc1` [Compound 102, N-(4-(benzyloxy)phenyl)-5-chloro-2-methoxybenzamide], the CC50 at 48 h in data set [1] (HEK 293 kidney cells, Table 3) is above 100 µM. Besides, the pIC50 in data set [2] (setting [3]) is below 4.00.

In the case of `O=C(Nc1ccc(OCc2ccccc2)cc1)c1cc(Cl)ccc1O` [Compound 103, N-(4-(benzyloxy)phenyl)-5-chloro-2-hydroxybenzamide], in data set [1] (HEK 293 kidney cells, Table 3), the CC50 at 48 h is above 100 µM. Besides, in data set [2] (setting [3]), the pIC50 is below 4.00.

For `COc1ccc(Cl)cc1C(=O)Nc1ccc(NC(C)=O)cc1` [Compound 104, N-(4-acetamidophenyl)-5-chloro-2-methoxybenzamide], the CC50 at 48 h in data set [1] (HEK 293 kidney cells, Table 3) was above 100 µM. In data set [2] (setting [3]), the pIC50 was below 4.00.

For the compound `CC(=O)Nc1ccc(NC(=O)c2cc(Cl)ccc2O)cc1` [Compound 105, N-(4-acetamidophenyl)-5-chloro-2-hydroxybenzamide], the CC50 at 48 h in data set [1] (HEK 293 kidney cells, Table 3) amounted to 69 µM. Besides, the pIC50 in data set [2] (setting [3]) is below 4.00.

As to `COC(=O)c1ccc(NC(=O)c2cc(Cl)ccc2OC)cc1` [Compound 106, methyl 4-(5-chloro-2-methoxybenzamido)benzoate], in data set [1] (HEK 293 kidney cells, Table 3), the CC50 at 48 h was found to be 24 µM. For the same compound, the pIC50 in data set [2] (setting [3]) was below 4.00.

`COC(=O)c1ccc(NC(=O)c2cc(Cl)ccc2O)cc1` [Compound 107, methyl 4-(5-chloro-2-hydroxybenzamido)benzoate]: the CC50 at 48 h in data set [1] (HEK 293 kidney cells, Table 3) is 11 µM. Moreover, the pIC50 in data set [2] (setting [3]) is below 4.00.

For the compound `COc1ccc(Cl)cc1C(=O)Nc1ccc(C(=O)O)cc1` [Compound 108, 4-(5-chloro-2-methoxybenzamido)benzoic acid], in data set [1] (HEK 293 kidney cells, Table 3), the CC50 at 48 h is above 100 µM. Further, the pIC50 in data set [2] (setting [3]) was below 4.00.

Regarding `COc1ccc(Cl)cc1C(=O)Nc1ccc(CC#N)cc1` [Compound 110, 5-chloro-N-(4-(cyanomethyl)phenyl)-2-methoxybenzamide], the cytotoxic concentration (CC50) at 48 h in data set [1] (HEK 293 kidney cells, Table 3) was above 100 µM. Further, the pIC50 in data set [2] (setting [3]) was below 4.00.

As for `N#CCc1ccc(NC(=O)c2cc(Cl)ccc2O)cc1` [Compound 111, 5-chloro-N-(4-(cyanomethyl)phenyl)-2-hydroxybenzamide], the CC50 at 48 h in data set [1] (HEK 293 kidney cells, Table 3) is 19 µM. For the same compound, the pIC50 in data set [2] (setting [3]) was below 4.00.

Take `COc1ccc(NC(=O)c2cc(Cl)ccc2OC)cc1` [Compound 112, 5-chloro-2-methoxy-N-(4-methoxyphenyl)benzamide]: the CC50 at 48 h in data set [1] (HEK 293 kidney cells, Table 3) is above 100 µM. In data set [2] (setting [3]), the pIC50 is below 4.00.

As for `COc1ccc(NC(=O)c2cc(Cl)ccc2O)cc1` [Compound 113, 5-chloro-2-hydroxy-N-(4-methoxyphenyl)benzamide], the CC50 at 48 h in data set [1] (HEK 293 kidney cells, Table 3) was found to be 19 µM. In addition, the pIC50 in data set [2] (setting [3]) is below 4.00.

In the case of `COc1ccc(Cl)cc1C(=O)Nc1ccc(O)cc1` [Compound 114, 5-chloro-N-(4-hydroxyphenyl)-2-methoxybenzamide], the CC50 at 48 h in data set [1] (HEK 293 kidney cells, Table 3) is above 100 µM. Also, the pIC50 in data set [2] (setting [3]) was below 4.00.

As for `O=C(Nc1ccc(O)cc1)c1cc(Cl)ccc1O` [Compound 115, 5-chloro-2-hydroxy-N-(4-hydroxyphenyl)benzamide], the CC50 at 48 h in data set [1] (HEK 293 kidney cells, Table 3) is above 100 µM. Besides, in data set [2] (setting [3]), the pIC50 was below 4.00.

As for `COc1ccc(Cl)cc1C(=O)Nc1ccccc1` [Compound 116, 5-chloro-2-methoxy-N-phenylbenzamide], in data set [1] (HEK 293 kidney cells, Table 3), the CC50 at 48 h is above 100 µM. In addition, the pIC50 in data set [2] (setting [3]) was below 4.00.

As to `O=C(Nc1ccccc1)c1cc(Cl)ccc1O` [Compound 117, 5-chloro-2-hydroxy-N-phenylbenzamide], in data set [1] (HEK 293 kidney cells, Table 3), the CC50 at 48 h came to 13 µM. For the same compound, the pIC50 in data set [2] (setting [3]) was below 4.00.

With `O=C(Nc1ccc([N+](=O)[O-])cc1Cl)c1cc(Cl)ccc1O` [Niclosamide, reference compound], the CC50 at 48 h in data set [1] (HEK 293 kidney cells, Table 1) came to 1.7 µM. For the same compound, the pIC50 in data set [2] (setting [4]) and in data set [2] (setting [3]) was below 4.00 throughout.

For the compound `CC(=O)Oc1ccccc1C(=O)Nc1ncc([N+](=O)[O-])s1` [Nitazoxanide, reference compound], the CC50 at 48 h in data set [1] (HEK 293 kidney cells, Table 1) is 30 µM. Besides, the pIC50 in data set [2] (setting [4]) is below 4.00.

Regarding `O=C(Nc1cc(Cl)cc(Cl)c1O)c1c(O)c(Cl)cc(Cl)c1Cl` [Oxyclosanide, reference compound], the CC50 at 48 h in data set [1] (HEK 293 kidney cells, Table 1) came out at 30 µM. Further, the pIC50 in data set [2] (setting [4]) is 4.55.

In the case of `O=C(Nc1ccc(Oc2ccc(Cl)cc2)c(Cl)c1)c1cc(I)cc(I)c1O` [Rafoxanide, reference compound], the CC50 at 48 h in data set [1] (Table 1) came out at 82 µM. The pIC50 in data set [2] was 5.57.

As to `O=C(Nc1ncc([N+](=O)[O-])s1)c1ccccc1O` [Tizoxanide, reference compound], in data set [1] (HEK 293 kidney cells, Table 1), the CC50 at 48 h amounted to 31 µM. The pIC50 in data set [2] (setting [4]) was below 4.00.

By CC50 is commonly meant the concentration that lowers cell viability or growth by half.
